Measured values: article PMC7064328 (Environmental Health Perspectives, 2020)
Where “and” joins values, the source holds several entries; their conditions need not be identical. Identical values can stand only once.

Key:
[1] = Internal dosimetry of PFOA and GenX in maternal serum, maternal liver, amniotic fluid and whole embryos (UPLC-MS/MS); format: in vivo, mouse (CD-1)
Procedure: Solid tissues were homogenized in RODI water at a ratio of approximately 1:3 tissue mass (milligrams) to liquid volume (microliters). Maternal serum, amniotic fluid, and tissue homogenates ( 25μL ) were spiked with internal standard suspended in 0.1M formic acid in a denaturation step, followed by a subsequent protein crash using ice-cold acetonitrile. Samples were vortex mixed after addition of formic acid and acetonitrile and then centrifuged at 10,000×g for 5 min. Extract supernatants were separated using a Waters ACQUITY UPLC® (Waters Corporation) fitted with a Waters ACQUITY UPLC® BEH C18 Column ( 130Å; 1.7μm; 2.1mm×50mm ). Detection was performed using a Waters Quattro Premier™ XE tandem quadrupole mass spectrometer in negative ionization mode.

placenta = assay: Placental thyroid hormone quantification (HPLC-MS/MS); format: in vivo, mouse (CD-1); details: E17.5
Procedure: Thyroid hormones (T3, triiodothyronine; T4, thyroxine; rT3, reverse triiodothyronine) in placenta were analyzed according to the methods described in Leonetti et al. ([2016]). Briefly, ∼300mg ( 207–526mg ) of two to three pooled placental tissues of same-sex embryos was homogenized and digested for 16 h overnight in PRONASE® Protease (Streptomyces griseus) solution (EMD Millipore Corp.). Each pooled sample of two to three placentas was considered as one biological replicate and included placentas from the same litter when possible. Three biological replicates were used for each treatment group and each sex. Samples were spiked with an antioxidant solution (containing 37.5mg/mL each of citric acid, ascorbic acid, and dithiothreitol) and C13 isotopically labeled internal standards (T4, T3, and rT3), and cold acetone was added to stop the digestion reaction. Samples were vortex mixed and centrifuged three times for 2 min at 10,000 relative centrifugal force (rcf), and the supernatants were collected and combined. Sample pH was adjusted with 6M hydrochloric acid to pH<2 . A liquid–liquid extraction with cyclopentane was performed and the cyclopentane layer discarded; briefly, 1mL of cyclopentane was added to the supernatant and vortexed before the sample was centrifuged for 3 min at 3,000 rcf and the cyclopentane layer discarded, and this was repeated three times. A liquid–liquid extraction with ethyl acetate was performed; briefly, 3mL of ethyl acetate was added to the extract and vortexed before being shaken on a plate shaker for 30 min and centrifuged for 3 min at 3,000 rcf, and the ethyl acetate layer collected; this was repeated three times. Ethyl acetate extracts were dried down to 50μL under a gentle nitrogen stream and resuspended in 1mL of 0.01M hydrochloric acid in 10% methanol. Samples were purified by solid-phase extraction using SampliQ Optimized Polymer Technology (OPT) cartridges ( 3mL , 50mg; Agilent Technologies). Final extracts in 400μL of 1:1 methanol:water were filtered using Whatman® Mini-UniPrep® Syringeless Filters [Polytetrafluoroethylene (PTFE), 0.2μm; GE Healthcare]. Extracts were analyzed on an Agilent high-performance liquid chromatography (HPLC) 1260 with a Synergi™ 50mm×2mm Polar-RP column ( 2.5μm; Phenomenex) coupled to an Agilent model 6460 tandem mass spectrometer with electrospray ionization (HPLC-MS/MS-ESI). Mobile phases consisted of 10 mM formic acid in methanol and 10 mM formic acid in water. Laboratory processing blanks were extracted alongside the placental tissues to monitor background levels. No TH were detected in the lab blanks. Method detection limits (MDLs) were calculated using a signal-to-noise value of 3 for each analyte (T3, T4, and rT3). Values were normalized to the wet weight of placenta extracted for a final value of nanogram hormone/gram placenta. Values below the MDL (T4, 0.84 ng/g; T3, 0.42 ng/g; rT3, 0.67 ng/g ) were imputed using the calculation MDL×0.5 , and values lacking a quantifiable peak on mass spectrometry were excluded from the analysis.
TH concentrations in the placenta were quantified, and the ratios of T3:T4 and rT3:T4 in E17.5 placentas were assessed to evaluate potential disruption of peripheral TH control (e.g., impacts on thyroid deiodinase activity). Each end point was analyzed for sex×treatment interaction or for an overall effect of sex. Placenta TH were analyzed by analysis of variance using lme4 ([Bates et al. 2014]). Simultaneous tests for general linear hypotheses were corrected for multiple comparisons of means using Tukey contrasts in the package multcomp ([Hothorn et al. 2009]). Placental TH and their ratios were initially analyzed with embryo sex as an interaction term in the model, with the dose group as the predictor variable. Inclusion of a sex interaction or sex covariate in the final model was examined in a stepwise fashion. Internal dosimetry data were analyzed by analysis of variance. […]

## N.O=C(O)C(F)(OC(F)(F)C(F)(F)C(F)(F)F)C(F)(F)F (stereo not drawn) [GenX, ammonium 2,3,3,3-tetrafluoro-2-(heptafluoropropoxy)propanoate]
[1]; 2 mg/kg/d
  Serum concentration, pregnant mice: ~33000 ng/mL
[1]; 10 mg/kg/d throughout gestation
  Dam serum concentration: ~100 µg/mL
[1]; E11.5, 2 mg/kg/d
  Amniotic fluid concentration: 3.6 ± 2.2 µg/mL
  Maternal liver concentration: 5.45 ± 3.43 µg/g
  Maternal serum concentration: 33.5 ± 15.7 µg/mL
  Whole embryo concentration: 0.91 ± 0.22 µg/g and 0.91 ± 0.2 µg/g
[1]; E11.5, 2 mg/kg/d GenX vs 1 mg/kg/d PFOA
  GenX accumulation in dam serum higher than accumulation of PFOA: 32%
[1]; E11.5, 10 mg/kg/d
  Amniotic fluid concentration: 9.3 ± 2.0 µg/mL
  Maternal liver concentration: 19.9 ± 4.2 µg/g
  Maternal serum concentration: 118.1 ± 10.4 µg/mL
  Whole embryo concentration: 3.21 ± 0.51 µg/g and 3.21 ± 0.5 µg/g
[1]; E17.5, 2 mg/kg/d
  Female embryo concentration: 3.39 ± 1.44 µg/g
  Male embryo concentration: 3.04 ± 1.27 µg/g
  Maternal liver concentration: 4.56 ± 2.80 µg/g
  Maternal serum concentration: 22.9 ± 17.1 µg/mL
  Whole embryo concentration: 3.23 ± 1.28 µg/g
[1]; E17.5, 10 mg/kg/d
  Female embryo concentration: 6.89 ± 2.72 µg/g
  Male embryo concentration: 7.55 ± 3.35 µg/g
  Maternal liver concentration: 14.2 ± 7.6 µg/g
  Maternal serum concentration: 58.5 ± 34.5 µg/mL
  Whole embryo concentration: 7.69 ± 2.92 µg/g
placenta; 2 mg/kg/d
  Placental T3: 0.3±0.2 [5 (0, 5)] ng/g
  Placental T4: 5.3±1.7 [6 (6, 0)] ng/g
  Placental rT3: 1.7±0.8 [6 (6, 0)] ng/g
placenta; 10 mg/kg/d
  Placental T3: 0.2±0 [6 (0, 6)] ng/g
  Placental T4: 6.1±1.1 [6 (6, 0)] ng/g
  Placental rT3: 1.6±0.3 [6 (6, 0)] ng/g
placenta; female, 2 mg/kg/d
  Placental T3: 0.3 ± 0.2 ng/g
  Placental T4: 5.9 ± 2.3 ng/g
  Placental rT3: 2.3 ± 0.6 ng/g
placenta; female, 10 mg/kg/d
  Placental T3: 0.2 ± 0 ng/g
  Placental T4: 6.5 ± 1.4 ng/g
  Placental rT3: 1.9 ± 0.1 ng/g
placenta; male, 2 mg/kg/d
  Placental T3: 0.2 ± 0 ng/g
  Placental T4: 4.7 ± 1.1 ng/g
  Placental rT3: 1.0 ± 0.2 ng/g
placenta; male, 10 mg/kg/d
  Placental T3: 0.2 ± 0 ng/g
  Placental T4: 5.8 ± 0.7 ng/g
  Placental rT3: 1.3 ± 0.3 ng/g

## O=C(O)C(F)(F)C(F)(F)C(F)(F)C(F)(F)C(F)(F)C(F)(F)C(F)(F)F [PFOA, Perfluorooctanoic acid]
[1]; E11.5, 1 mg/kg/d
  Amniotic fluid concentration: 4.6 ± 2.8 µg/mL
  Maternal liver concentration: 48.3 ± 12.5 µg/g
  Maternal serum concentration: 25.4 ± 3.7 µg/mL
  Whole embryo concentration: 0.80 ± 0.10 µg/g
[1]; E11.5, 5 mg/kg/d
  Amniotic fluid concentration: 8.8 ± 2.7 µg/mL
  Maternal liver concentration: 151.5 ± 18.5 µg/g
  Maternal serum concentration: 117.3 ± 20.6 µg/mL
  Whole embryo concentration: 2.34 ± 0.27 µg/g and 2.34 ± 0.3 µg/g
[1]; E17.5, 1 mg/kg/d
  Female embryo concentration: 5.78 ± 0.81 µg/g
  Male embryo concentration: 5.78 ± 0.82 µg/g
  Maternal liver concentration: 181.1 ± 46.0 µg/g
  Maternal serum concentration: 18.7 ± 3.2 µg/mL
  Whole embryo concentration: 5.78 ± 0.71 µg/g
[1]; E17.5, 5 mg/kg/d
  Female embryo concentration: 16.1 ± 2.75 µg/g
  Male embryo concentration: 16.9 ± 1.88 µg/g
  Maternal liver concentration: 159.2 ± 21.7 µg/g
  Maternal serum concentration: 95.1 ± 14.1 µg/mL
  Whole embryo concentration: 16.4 ± 1.75 µg/g
[1]; by E17.5, regardless of PFOA dose group
  Maximum bioaccumulation in maternal liver: 160–180 μg PFOA/g liver
placenta; 1 mg/kg/d
  Placental T3: 0.2±0 [6 (0, 6)] ng/g
  Placental T3:T4 ratio: 0.09±0.03 [6]
  Placental T4: 2.5±1.0 [6 (6, 0)] ng/g
  Placental rT3: 0.7±0.4 [6 (3, 3)] ng/g
  Placental rT3:T4 ratio: 0.30±0.21 [6]
placenta; 5 mg/kg/d
  Placental T3: 0.2±0 [4 (0, 4)] ng/g
  Placental T3:T4 ratio: 0.07±0.02 [4]
  Placental T4: 2.8±1.3 [6 (6, 0)] ng/g
  Placental rT3: 1.4±0.7 [5 (5, 0)] ng/g
  Placental rT3:T4 ratio: 0.45±0.05 [5]
placenta; female, 1 mg/kg/d
  Placental T3: 0.2 ± 0 ng/g
  Placental T3:T4 ratio: 0.104 ± 0.02
  Placental T4: 2.0 ± 0.4 ng/g
  Placental rT3:T4 ratio: 0.401 ± 0.22
placenta; female, 5 mg/kg/d
  Placental T3: 0.2 ± 0 ng/g
  Placental T3:T4 ratio: 0.065 ± 0.02
  Placental rT3: 1.6 ± 1.0 ng/g
  Placental rT3:T4 ratio: 0.441 ± 0.05
placenta; male, 1 mg/kg/d
  Placental T3: 0.2 ± 0 ng/g
  Placental T3:T4 ratio: 0.071 ± 0.02
  Placental rT3: 0.5 ± 0.4 ng/g
  Placental rT3:T4 ratio: 0.196 ± 0.17
placenta; male, 5 mg/kg/d
  Placental T3: 0.2 ng/g
  Placental T3:T4 ratio: 0.083
  Placental rT3: 1.2 ± 0.1 ng/g
  Placental rT3:T4 ratio: 0.454 ± 0.07
